Where “and” joins values, the source holds several entries; their conditions need not be identical. Equal entries are not always repeated.
Columns and labels:
[1] = target: T1, RIPK2 (Homo sapiens, UniProt O43353); assay: RIPK2 degradation in THP-1 cells, capillary-based immunoassay, 18 h; format: cell-based; parameters: endogenous in cells; host or cells: THP-1 (ATCC TIB-202); conditions: for RIPK2 level relative to DMSO control, mean / RIPK2 level relative to DMSO control, replicate: THP-1, 18 h; for pDC50 (log half-maximal degradation concentration) of RIPK2: THP-1 cells, 18 h, n = 3
T1 sequence (O43353 whole entry): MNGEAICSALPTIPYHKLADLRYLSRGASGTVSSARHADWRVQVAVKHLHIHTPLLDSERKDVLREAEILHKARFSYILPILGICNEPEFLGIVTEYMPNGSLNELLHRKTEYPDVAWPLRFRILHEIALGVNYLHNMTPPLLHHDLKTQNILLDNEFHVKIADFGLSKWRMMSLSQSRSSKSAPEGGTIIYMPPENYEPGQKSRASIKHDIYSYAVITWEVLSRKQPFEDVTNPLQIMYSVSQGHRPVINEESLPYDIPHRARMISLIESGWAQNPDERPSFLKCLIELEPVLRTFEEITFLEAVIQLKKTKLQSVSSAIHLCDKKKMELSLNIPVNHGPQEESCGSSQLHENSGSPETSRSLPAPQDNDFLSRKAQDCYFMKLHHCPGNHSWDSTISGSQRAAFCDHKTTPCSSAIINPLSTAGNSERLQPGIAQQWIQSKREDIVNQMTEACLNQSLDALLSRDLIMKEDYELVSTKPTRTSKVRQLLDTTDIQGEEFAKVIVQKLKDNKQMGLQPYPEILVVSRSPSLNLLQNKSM
Method: The compounds were incubated with THP-1 cells for 18 h after which RIPK2 levels were determined using a capillary-based immunoassay (n = 3). All three PROTACs potently degraded RIPK2 in a concentration dependent manner (Fig. 1). […]. This discrepancy between the in vitro RIPK2 degradation and binding potency provides possible evidence for a catalytic mechanism of action of this compound.
(§1) Before treatment with compound or vehicle, THP1 cells, human and rat PBMCs were counted using Vi-Cell cell counter (Invitrogen) and adjusted to a final cell density of […] using complete growth medium. Cells or whole blood were treated with vehicle (0.1% DMSO) or fixed concentrations of compound up to 1 μM in half log unit increments and incubated for the time period indicated in the figure.
(§2) Simple Western immunoassay: Cell lysates were mixed with 5× concentrated master mix (Protein Simple) and denatured at 95 °C on a heat block for 5 min together with the provided ladder (Protein Simple). Antibodies were diluted in the provided buffer as following: anti-RIPK2 (1:10 or 1:50), anti-cIAP1(1:10), anti-cIAP2 (1:10), anti-XIAP (1:10), mouse anti-β-actin (Abcam - 1:1000), rabbit anti-β-actin (Abcam - 1:50) and anti-vinculin (1:100). All reagents (blocking buffer, primary and secondary antibodies, streptavadin, luminol/peroxide, separation matrix, stacking matrix and water) were added to the Protein Simple plate containing the ladder and lysates and the plate was placed in a Protein Simple Western instrument and the Simple Western default size assay protocol was used. All samples were analyzed using the associated Compass software 3.1.7. The area under the peak values obtained for RIPK2, cIAP1, cIAP2 or XIAP were normalized relative to the control protein values.
(§3) In vitro experimental data were analyzed using a 4-parameter logistic equation in GraphPad Prism 5.0.4. to generate an estimate of the half-maximal concentration and maximal degradation, DC50 and Dmax value respectively, for concentration-degradation relationships. Cytokine levels were analyzed in a similar manner to yield IC50 and Imax values. […] Where analysis to a sigmoidal relationship was not possible, the data points are shown as mean ± s.e.m.

[2] = target: T1, RIPK2; assay: RIPK2 fluorescence polarisation binding assay
[3] = tested on: L18-MDP-induced TNFα release; assay: L18-MDP-induced cytokine release (TNFα, IL1β, IL-6, IL-8, IL-10) in human PBMCs; format: cell-based; conditions: human PBMCs
Method: (§4) PBMCs were isolated from leukodepletion filter from platelet aphaeresis supplied by National Health System Blood and Transplant—NHSBT Apheresed at NHBST.
as §1
(§5) Where the assessment of cytokines was performed, L18-MDP was added to the cell culture media (1 μg/ml) or to the rat blood samples (100 ng/ml) and samples were incubated for up to 4 h. […] Samples were them spun down at 1000 g and the cell culture supernatant, plasma or serum were collected for cytokines assessment, while cell pellets were used for RIPK2 and/or cIAP1, cIAP2, and XIAP levels analysis via immunoblotting.
(§6) Cytokine measurement assay: Cytokine levels were measured in rat plasma or rat PBMCs cell culture supernatants using rat V-Plex TNFα, in human plasma or human PBMCs cell culture supernatants with either TNFα tissue culture or 7-plex kit. Rat serum and tissues samples from the in vivo L18-MDP acute inflammation model were analyzed using the rat TNFα, Il-6 and IL-8 U-Plex kits. All kits provided by Meso Scale Discovery (MSD). Levels of cytokines spontaneously released from human colon biopsies cell culture supernatants were measured using Human IL-1 beta/IL-1F2 DuoSet ELISA (Bio-techne), Human IL-6 ELISA (Immunotools) and Human TNF-alpha DuoSet ELISA (Bio-techne). All samples were processed accordingly to the manufacturer’s instructions. The MSD plates were analyzed using the MSD sector imager 6000 plate reader and cytokines concentration (pg/ml) was obtained by using the MSD DISCOVERY WORKBENCH software version 4.0.12.1
as §3

[4] = target: T1, RIPK2; assay: RIPK2 degradation in human PBMCs (immunoassay); format: cell-based; parameters: endogenous in cells; host or cells: primary human PBMCs from leukodepletion filters (NHSBT)
Method: as §4, §1, §5
as §2, with “All samples were analyzed using the associated Compass software 3.1.7.” left out
as §3

[5] = tested on: spontaneous IL-1β, IL-6, and TNFα release; assay: Spontaneous cytokine release (IL-1β, IL-6, TNFα) from ulcerative colitis patient intestinal biopsies; format: cell-based, human; conditions: prednisolone 1uM; individual biopsies; fig 4f
Method: (§7) Colonic biopsies or tissues were obtained during endoscopy or via surgical resection from Crohn’s Disease (CD) or Ulcerative Colitis (UC) patients (St Bartholomew’s Hospital, London). All patients gave informed written consent. For surgical specimens, the mucosa was dissected away from the submucosa and cut into pieces of ~10–20 mg. […] The supernatants were collected for cytokine measurement as detailed in cytokines assay section while tissues were used to determine RIPK2 levels.
as §6

[6] = tested on: spontaneous IL-1β, IL-6, and TNFα release; assay: Spontaneous cytokine release (IL-1β, IL-6, TNFα) from Crohn's disease patient intestinal biopsies; format: cell-based, human; conditions: prednisolone 1uM; individual biopsies; fig 4e
Method: as §7, §6

| Structure (SMILES) | RIPK2 level relative to DMSO control, mean ([1]; concentration 5.64503e-11 (uM)) | RIPK2 level relative to DMSO control, replicate ([1]; concentration 5.64503e-11 (uM)) | RIPK2 level relative to DMSO control, mean ([1]; concentration 1.69351e-10 (uM)) | RIPK2 level relative to DMSO control, replicate ([1]; concentration 1.69351e-10 (uM)) | RIPK2 level relative to DMSO control, mean ([1]; concentration 5.08053e-10 (uM)) | RIPK2 level relative to DMSO control, replicate ([1]; concentration 5.08053e-10 (uM)) | RIPK2 level relative to DMSO control, mean ([1]; concentration 1.52416e-9 (uM)) | RIPK2 level relative to DMSO control, replicate ([1]; concentration 1.52416e-9 (uM)) | RIPK2 level relative to DMSO control, mean ([1]; concentration 4.57247e-9 (uM)) | RIPK2 level relative to DMSO control, replicate ([1]; concentration 4.57247e-9 (uM)) | RIPK2 level relative to DMSO control, mean ([1]; concentration 1.37174e-8 (uM)) | RIPK2 level relative to DMSO control, replicate ([1]; concentration 1.37174e-8 (uM)) | RIPK2 level relative to DMSO control, mean ([1]; concentration 4.11523e-8 (uM)) | RIPK2 level relative to DMSO control, replicate ([1]; concentration 4.11523e-8 (uM)) | RIPK2 level relative to DMSO control, mean ([1]; concentration 1.23457e-7 (uM)) | RIPK2 level relative to DMSO control, replicate ([1]; concentration 1.23457e-7 (uM)) | RIPK2 level relative to DMSO control, mean ([1]; concentration 3.7037e-7 (uM)) | RIPK2 level relative to DMSO control, replicate ([1]; concentration 3.7037e-7 (uM)) | RIPK2 level relative to DMSO control, mean ([1]; concentration 1.11111e-6 (uM)) | RIPK2 level relative to DMSO control, replicate ([1]; concentration 1.11111e-6 (uM)) | also measured |
| --- | --- | --- | --- | --- | --- | --- | --- | --- | --- | --- | --- | --- | --- | --- | --- | --- | --- | --- | --- | --- | --- |
| Cc1ncsc1-c1ccc(CNC(=O)[C@@H]2C[C@@H](O)CN2C(=O)[C@@H](NC(=O)COCCOCCOCCOCCOc2cc3nccc(Nc4ccc5scnc5c4)c3cc2S(=O)(=O)C(C)(C)C)C(C)(C)C)cc1 [PROTAC 1] | 137.19% | 137.14% and 131.67% and 142.75% | 152.51% | 155.57% and 149.03% and 152.92% | 122.01% | 106.27% and 143.87% and 115.89% | 89.18% | 63.87% and 96.25% and 107.40% | 27.32% | 23.09% and 35.58% and 23.29% | 9.76% | 12.67% and 5.77% and 10.83% | 6.61% | 11.20% and 7.66% and 0.96% | 5.05% | 9.24% and 2.76% and 3.15% | 6.31% | 7.12% and 6.30% and 5.51% | 33.78% | 1.60% and 12.61% and 87.13% | RIPK2 level relative to DMSO control, mean ([1]; concentration 3.33333e-6 (uM)): 14.14%; RIPK2 level relative to DMSO control, replicate ([1]; concentration 3.33333e-6 (uM)): 1.88% and 3.30% and 37.22%; RIPK2 level relative to DMSO control, mean ([1]; concentration 1e-5 (uM)): 11.28%; RIPK2 level relative to DMSO control, replicate ([1]; concentration 1e-5 (uM)): 13.04% and 4.22% and 16.59%; pDC50 (log half-maximal degradation concentration) of RIPK2 [1]: 8.7 ± 0.1 |
| CC(C)(C)S(=O)(=O)c1cc2c(Nc3ccc4scnc4c3)ccnc2cc1OCCOCCOCCOCCOCC(=O)Nc1cccc2c1CN([C@H]1CCC(=O)NC1=O)C2=O [PROTAC 3] | 146.59% | 194.68% and 98.50% | 122.55% | 71.16% and 101.63% and 194.85% | 97.79% | 93.88% and 82.74% and 116.75% | 112.46% | 101.29% and 70.25% and 165.85% | 60.56% | 92.51% and 28.00% and 61.18% | 42.80% | 81.76% and 12.71% and 33.93% | 29.73% | 51.94% and 1.28% and 35.96% | 21.93% | 35.50% and 5.30% and 24.99% | 20.89% | 34.52% and 2.06% and 26.09% | 14.85% | 24.75% and 3.56% and 16.23% | RIPK2 level relative to DMSO control, mean ([1]; concentration 3.33333e-6 (uM)): 15.39%; RIPK2 level relative to DMSO control, replicate ([1]; concentration 3.33333e-6 (uM)): 20.92% and 6.74% and 18.51%; RIPK2 level relative to DMSO control, mean ([1]; concentration 1e-5 (uM)): 22.12%; RIPK2 level relative to DMSO control, replicate ([1]; concentration 1e-5 (uM)): 28.44% and 5.50% and 32.40%; pDC50 (log half-maximal degradation concentration) of RIPK2 [1]: 8.6 ± 0.4 |
| CN[C@H](C)C(=O)N[C@@H](C(=O)N1CCC[C@@H]1c1nc(C(=O)c2ccc(F)cc2)cs1)C1CCN(C(=O)c2cnc(N3CCN(CCOc4cc5ncnc(Nc6n[nH]c(C)c6C)c5cc4S(=O)(=O)C(C)(C)C)CC3)nc2)CC1 [PROTAC 5] |  |  |  |  |  |  |  |  |  |  |  |  |  |  |  |  |  |  |  |  | RIPK2 FP pIC50 ± SEM (n) [2]: 6.7 ± 0.05 (12); hPBMC MDP pIC50 ± SEM, 6 h (n = 3) ([3]; L18-MDP-induced TNFα release, 6 h): 6.5 ± 0.5; fold reduced potency in L18-MDP-induced TNFα release versus the active PROTAC ([3]; control PROTAC vs its enantiomer): more than 10 fold; RIPK2 degradation in human PBMCs, in words [4]: does not degrade RIPK2; hPBMC pDC50 ± SEM, 24 h (n = 3) ([4]; RIPK2 degradation, 24 h): Non-degrader |
| C[C@]12C=CC(=O)C=C1CC[C@@H]1[C@@H]2[C@@H](O)C[C@@]2(C)[C@H]1CC[C@]2(O)C(=O)CO [prednisolone, reference compound] |  |  |  |  |  |  |  |  |  |  |  |  |  |  |  |  |  |  |  |  | IL-1b (Ctrl=DMSO = 100) [5]: 65 and 41 and 10 and 46 and 7 (2×) and 49 and 30 and 14 and 33 and 36 and 5 and 17 and 39 and 19 (2×) and 13 and 34 and 28; IL-6 (Ctrl=DMSO = 100) [5]: 58 and 14 and 16 and 25 and 18 and 9 and 12 and 5 (2×) and 74 and 26 and 34 and 28 and 19 and 3 and 21 and 17 and 48 and 24; TNFa (Ctrl=DMSO = 100) [5]: 36 and 19 and 40 and 48 and 18 (2×) and 56 and 8 and 33 and 55 and 69 and 27 and 38 (2×) and 20 and 25 and 35 and 14 and 39; IL-1b (Ctrl=DMSO = 100) [6]: 18 and 20 and 82 and 15 and 48 and 13 and 5 (2×) and 35 and 37 and 12 and 6 and 49 and 17; IL-6 (Ctrl=DMSO = 100) [6]: 26 (2×) and 27 and 10 and 1 and 8 and 46 and 63 and 31 and 7 and 42 and 40 and 90 and 50 and 9; TNFa (Ctrl=DMSO = 100) [6]: 29 and 15 and 42 and 28 and 19 and 0 and 13 and 33 and 46 (2×) and 27 and 26 and 38 and 23 and 66 |

From article PMC7083851, “Extended pharmacodynamic responses observed upon PROTAC-mediated degradation of RIPK2” (Communications Biology, 2020)
